Read-outs that look alike come from different tables or passages of the source. Marks after values point to notes of the source that are not given here.
How the values were obtained:
[1] = Image-based single particle analysis (SPA) solubility measurement of amorphous and crystalline samples; assay type: physicochemical; details: for DS (degree of supersaturation, amorphous vs crystalline solubility), SPA method: Milli-Q ultrapure water, type 1
Description: The constant flow continuously displaces drug molecules from the surface of the dissolving particle. […] (Figure 1). The solubilities of all five crystalline and amorphous samples were measured in triplicate in Milli-Q water. […] The obtained solubility values, therefore, were the average of three independent measurements, where at least ten particles per single measurement were analyzed. Additionally, amorphous IND was also measured in HCl buffer pH 2.0 in the presence of 0.1% (w/v) polyvinylpyrolidone (PVP). The additional measurement using PVP was performed in order to assess the need for a crystallization inhibitor in the SPA experiments. The solubilities of the amorphous and crystalline samples were measured in Milli-Q water and USP buffers as soon as the solvent came in contact with particles.

[2] = cited from earlier work
[3] = cited from earlier work; remark: listed apart in the source
[4] = Theoretical estimation of DS by the Hoffman method from DSC and DVS data; assay type: physicochemical
Description: Samples of 5–10 mg were tightly packed into standard aluminum crucibles (40 μL) with pierced lids. The samples were equilibrated at 25 °C for 3 min and then linearly heated with a heating rate of 10 °C/min to 20 °C above their respective melting points. Measurements of both amorphous and crystalline samples were recorded in triplicate, and thermal events were analyzed using the STARe software (Mettler-Toledo, Greifensee, Switzerland). Temperatures and melting enthalpies were used to estimate the free energy difference between the amorphous and crystalline forms.
The water sorption isotherms of the five amorphous drug samples were determined using the method previously described by Murdande et al.[10] A VTI-SA+ Vapor Sorption Analyzer (TA Instruments, New Castle, DE, USA) was used to measure the moisture sorption profiles of the amorphous samples. Approximately 10 mg of amorphous sample was placed into a glass holder. To reduce the possibility of sample crystallization during the measurement, no drying step was used. The DVS measurements were performed at 25 °C from 0 to 95% relative humidity (in 10% steps up to 90%). The equilibrium criterion was 0.001% weight change in 5 min with a maximum step time of 150 min. The instrument is calibrated once a month.
According to Hoffman, the difference in Gibbs free energy (ΔG) between the crystalline and the amorphous form can be estimated using eq 4.[15]Hm, Tm, and T are the melting enthalpy of the crystalline form, the melting temperature of the crystalline form, and the experimental temperature measured in Kelvin, respectively. Using the ΔG estimation, the maximum DS due to amorphization was predicted according to Hancock and Parks[9] and corrected for the impact of water on the amorphous solute as proposed by Murdande et al. through eq 5.[10]R and exp(−I(a2)) are the gas constant and a correction factor obtained from DVS measurements, as shown by Murdande et al.[10]

[5] = Dynamic water sorption (DVS) of amorphous samples; assay type: physicochemical; details: above RH 80%, 25 °C

## Cc1ccc(-c2cc(C(F)(F)F)nn2-c2ccc(S(N)(=O)=O)cc2)cc1 [CEL, Celecoxib]
[1]
  DS (degree of supersaturation, amorphous vs crystalline solubility), SPA method: 18.9
[2]; temperature range of 34–75 °C
  DS range reported in the literature: 7–21
[3]; distilled water
  DS, literature, dissolution in water: 3.1 ^c^, ^h
[4]
  DS, theoretical estimation (Hoffman method with correction for the effect of water on the amorphous solute): 21.7

## C#C[C@]1(O)CC[C@H]2[C@@H]3CCC4=Cc5oncc5C[C@]4(C)[C@H]3CC[C@@]21C [DAN, Danazol]
[2]
  DS, literature, theoretical estimation: 26.5 ^i
[3]; deionized water
  DS, literature, dissolution in water: 3.0 ^d^, ^i
[4]
  DS, theoretical estimation (Hoffman method with correction for the effect of water on the amorphous solute): 23.9

## OCCN(CCO)c1nc(N2CCCCC2)c2nc(N(CCO)CCO)nc(N3CCCCC3)c2n1 [DIP, Dipyridamole]
[1]
  DS (degree of supersaturation, amorphous vs crystalline solubility), SPA method: 15.3
[2]
  DS, literature, theoretical estimation: 10 ^k
[4]
  DS, theoretical estimation (Hoffman method with correction for the effect of water on the amorphous solute): 6.6
  DS, theoretical estimation based solely on ΔG, without the correction for the adsorbed water: 15.2
[5]
  sample mass loss in DVS experiment (crystallization, water expelled): 0.39%

## COC1=CC(=O)C[C@@H](C)[C@]12Oc1c(Cl)c(OC)cc(OC)c1C2=O [GRI, griseofulvin]
[1]
  DS (degree of supersaturation, amorphous vs crystalline solubility), SPA method: 29.8
[2]; approach by Almeida et al.
  DS, literature, theoretical estimation: 30.9
[2]
  DS, literature, theoretical estimation: 29.1
[3]; deionized water
  DS, literature, dissolution in water: 1.4 ^d^, ^i
[4]
  DS, theoretical estimation (Hoffman method with correction for the effect of water on the amorphous solute): 34.6

## COc1ccc2c(c1)c(CC(=O)O)c(C)n2C(=O)c1ccc(Cl)cc1 [IND, indomethacin]
[1]
  DS (degree of supersaturation, amorphous vs crystalline solubility), SPA method: 20.4
[1]; USP HCl buffer pH 2.0 with vs without PVP 0.1% (w/v)
  effect of PVP in the dissolution medium on the solubility of the amorphous form, SPA method: did not affect
[2]
  DS, literature, theoretical estimation: 20.8 ^i
[3]; deionized water
  DS, literature, dissolution in water: 4.9 ^d^, ^i
[4]
  DS, theoretical estimation (Hoffman method with correction for the effect of water on the amorphous solute): 18.7

From article PMC6750642, “Direct Measurement of Amorphous Solubility” (Analytical Chemistry, 2019)
